# Assay results reported in patent publication EP0472573B1, “HERBICIDE RESISTANT MAIZE” (ZENECA LIMITED, priority 1989, dated 1990).
# Key:
# [1] = target: ALS enzyme extracted from Mutant 9 (heterozygous); assay: ALS enzyme assay, heterozygous Mutant 9; format: biochemical, Zea mays; details: for IC50: ALS of heterozygous Mutant 9, read-out: ID50% (the source's name); for resistance group, Enzyme Assay: Mutant 9, groups Strong, Intermediate, Weak, Zero; for Fold Increase: fold increase in resistance vs wild type, heterozygous Mutant 9, 30 min
# Method: (§1) Seeds of generation M₁BC₁ M₁BC₂ of the nine mutants were sprayed pre-emergence with the herbicide imazethapyr (PURSUIT) (Trade Mark) at a rate of 250 g/ha and grown in a growth chamber (16 hour day, 27°C; 8 hour night, 17°C). Plants were harvested after 11 days.
# (§2) Four grams of leaf material were harvested from just above the first leaf axis and ground in a mortar and pestle in 20ml of a solution containing 40mM Tricine (Trade Mark), 10mM EDTA, 5mM pyruvate, 80 »M flavin adenine dinucleotide (FAD), 1mM dithiothreitol (DTT), pH 8, plus 0.8g Polyclar AT. The homogenate was pressed through four layers of muslin and centrifuged at 30,000g for 20 minutes.
# (§3) The supernatant was brought to 65% saturation with ammonium sulphate, left to precipitate for 30 minutes and then centrifuged at 30.000g for 20 minutes. The pellet was resuspended in 2.5ml of 40mM Tricine, 10mM EDTA, 5mM pyruvate, 80»M FAD, 25% (v/v) glycerol, 1mM DTT, pH 8, and desalted into 3.5ml of 40mM Tricine, 10mM EDTA, 25% (v/v) glycerol, 1mM DTT, pH 8.
# (§4) One hundred microlitres of the enzyme extract was used for each assay. Final reagent concentrations were: 120mM Tricine, 50mM pyruvate, 10mM MgCl₂, […], 93»M thiamine pyrophosphate (TPP), pH 8, in the presence or absence of a herbicide of interest, in a volume of 750 »l. Incubations were carried out at 37°C for 30 minutes. Reactions were stopped with 250»l of 1.84M sulphuric acid, and decarboxylation of the acetolactate carried out at 37°C for 75 minutes, or at 60°C for 30 minutes. Assay blanks had sulphuric acid added prior to the enzyme extract. To the samples and blanks 650»l of α-naphthol in 2.73M NaOH/0.16%(w/v) creatine were added followed by incubation at 37°C for 30 minutes. After centrifugation at 30,000g the optical density of the supernatant was read at 540nm.
# (§5) The assay procedure described was carried out on ALS enzyme extracted from each of the nine mutants for the following herbicides: imazethapyr (PURSUIT) imazapyr (ARSENAL) imazaquin (SCEPTER) chlorsulfuron (GLEAN) chlorimuron (CLASSIC) […] (HARMONY) The enzyme activity graphs are given as Figures 3 to 8. In addition, homozygous lines of mutants 1 and 2 which were selected from generation M₁BC₁S₂, were also tested against the same group of herbicides and against representatives of the triazolopyrimidines and phenoxypyrimidines. The chemical structures of these herbicides are shown in Figure 2 of the accompanying drawings.
# (§6) From the enzyme assay data it is possible to derive, as a measure of the degree of inhibition the factor ID50% for each mutant and for each herbicide. This factor is indicative of the herbicide concentration which gives 50% inhibition of the ALS activity in comparison with the wild-type control. It is also possible to derive the fold increase in resistance.
# [2] = target: ALS enzyme extracted from Mutant 3 (heterozygous); assay: ALS enzyme assay, heterozygous Mutant 3; format: biochemical, Zea mays; details: for IC50: ALS of heterozygous Mutant 3, read-out: ID50% (the source's name); for resistance group, Enzyme Assay: Mutant 3, groups Strong, Intermediate, Weak, Zero; for Fold Increase: fold increase in resistance vs wild type, heterozygous Mutant 3, 30 min
# Method: as §1, §2, §3, §4, §5, §6
# [3] = test system: Mutant 2 plants; assay: Cross-resistance testing (glasshouse dose response), Mutant 2; format: in vivo, Zea mays; details: pre-emergence spray, assessed after four weeks growth
# From the text: (§7) The seeds used in this screen were populations of mixed tolerant and sensitive seed, segregating 1:1, derived from each of the heterogygous, tolerant mutants crossed with homozygous, sensitive UE95. All of the tolerant progeny are heterozygous for tolerance. Each of the mutants identified above were used except mutant 4. The controls were seed of self-pollinated UE95 which was pollinated in the same year as the tolerant lines.
# (§8) One litre of compost was placed in each seed tray of dimensions 19cm x 11cm x 5cm deep and firmed down flat. Two furrows 1 cm deep were drawn in the surface of the compost in each tray and six seeds were sown in each furrow (total twelve seeds per tray). Some trays were sown with 24 seeds, in which case three furrows were made and 8 seeds sown per furrow.
# (§9) In each test each tray contained either the seed of one mutant or of the UE95 control for each herbicide application rate and for the untreated control.
# (§10) Five different types of ALS-inhibitor herbicides were tested on the mutants plus imazethapyr (PURSUIT) as a comparison. Four rates of each were applied; approximately 0.1x, 0.5x, 1x and 4x the estimated field rates for each herbicide. The rates are the same for mutant 3 to 10 but higher rates for chlorimuron (CLASSIC) and lower rates for chlorsulfuron (GLEAN) were applied to mutants 1 and 2.
# (§11) The rates of application used in the screening tests were as follows: chlorimuron (CLASSIC) 4,20,40,160 g/Ha (mutants 1 and 2); and, 8,40,80,320 g/Ha (mutants 3 to 10); chlorsulfuron (GLEAN) 5,25,50,200 g/Ha (mutants 1 and 2); and, 1,5,10,40 g/Ha (mutants 3 to 10); imazaquin (SCEPTER) 30,150,300,1200 g/Ha; triazolopyrimidine 5,25,50,200 g/Ha; phenoxypyrimidine 10,50,100,400 g/Ha; and, imazethapyr (PURSUIT) 30,150,300,1200 g/Ha The triazolopyrimidine and phenoxypyrimidine were formulated in an adjuvant wetting agent known as JF5969 and diluted with water to make a final concentration of 10% JF5969. The remaining compounds were diluted with water only.
# (§12) The spray jet and parameters were as decribed above under "SCREENING". After spraying, the seeds were covered with 0.5 litre of compost and firmed down flat (2.5cm covering) and grown under the conditions described under "SCREENING" above.
# (§13) Visual assessments were made of the plants after four weeks growth. Each plant was scored on a scale of zero to 5 and the height measured from soil surface to the tallest leaf tip. The scoring scale was as follows: 0 - 0 to 10% damage (little or no herbicidal effect) 1 - 11 to 25% damage 2 - 26 to 50% damage 3 - 51 to […] 4 - 81 to 95% damage 5 - 96 to 100% damage (complete death of the plant) In carrying out these assessments, plants which were obviously of the sensitive phenotype were ignored (approximately 50% of the plants). […]
# [4] = target: ALS enzyme extracted from Mutant 1 (heterozygous); assay: ALS enzyme assay, heterozygous Mutant 1; format: biochemical, Zea mays; details: for IC50: ALS of heterozygous Mutant 1, read-out: ID50% (the source's name); for resistance group, Enzyme Assay: Mutant 1, groups Strong, Intermediate, Weak, Zero; for Fold Increase: fold increase in resistance vs wild type, heterozygous Mutant 1, 30 min
# Method: as §1, §2, §3, §4, §5, §6
# [5] = test system: Mutant 3 plants; assay: Cross-resistance testing (glasshouse dose response), Mutant 3; format: in vivo, Zea mays; details: pre-emergence spray, assessed after four weeks growth
# From the text: as §7, §8, §9, §10, §11, §12, §13
# [6] = test system: Mutant 10 plants; assay: Cross-resistance testing (glasshouse dose response), Mutant 10; format: in vivo, Zea mays; details: pre-emergence spray, assessed after four weeks growth
# From the text: as §7, §8, §9, §10, §11, §12, §13
# [7] = test system: Mutant 9 plants; assay: Cross-resistance testing (glasshouse dose response), Mutant 9; format: in vivo, Zea mays; details: pre-emergence spray, assessed after four weeks growth
# From the text: as §7, §8, §9, §10, §11, §12, §13
SMILES,IC50 [1],"resistance group, Enzyme Assay [1]",Fold Increase [1],IC50 [2],"resistance group, Enzyme Assay [2]",Fold Increase [2],"resistance group, Dose Response [3]",IC50 [4],"resistance group, Enzyme Assay [4]",Fold Increase [4],"resistance group, Dose Response [5]","resistance group, Dose Response [6]","resistance group, Dose Response [7]"
"COc1nc(C)nc(NC(=O)NS(=O)(=O)c2ccccc2Cl)n1 [Chlorsulfuron, chlorsulfuron]",0.05 µM,Weak,3,0.035 µM,Weak,2,Zero,0.065 µM,Weak,4,Intermediate,Weak and Zero,Weak and Zero
"CC(C)C1(C)N=C(c2nc3ccccc3cc2C(=O)O)NC1=O (stereo not drawn) [Imazaquin, imazaquin]",50 µM,Strong,83,1.5 µM,Weak,2,Strong,150 µM,Strong,250,Weak,Weak,Strong
"COc1cc(Cl)nc(NC(=O)NS(=O)(=O)c2ccccc2C(=O)O)n1 [Chlorimuron, chlorimuron]",–,Weak,3,0.015 µM,Weak,4,Zero,0.005 µM,Weak,1,Weak,Weak,Zero
"CCc1cnc(C2=NC(=O)C(C)(C(C)C)N2)c(C(=O)O)c1 (stereo not drawn) [Imazethapyr, 5-ethyl-2-(5-iso-propyl-5-methyl-4-oxo-2-imidazolin-2-yl) nicotinic acid]",425 µM,Strong,283,2.5 µM,Weak,2,Intermediate,> 1000 µM,Strong,>660,Weak,Intermediate,Strong
